Measurements reported in ChEMBL document CHEMBL1145553, “Possible chemical mechanisms underlying the antitumor activity of S-deoxyleinamycin” (Bioorg Med Chem Lett, 2008).

What was measured:
[1] = Cleavage of supercoiled pGL2 basic DNA assessed as nicked open circular form DNA level at 150 uM in presence of thiol
[2] = Cleavage of supercoiled pGL2 basic DNA assessed as number of strand breaks per plasmid at 150 uM in presence of thiol
[3] = system: HeLa; test: Cytotoxicity against human HeLa S3 cells; type: functional, cell-based
[4] = system: HepG2; test: Growth inhibition of human HepG2 cells; type: functional
[5] = Cleavage of thiol-mediated supercoiled pGL2 basic DNA assessed as number of strand breaks per plasmid at 150 uM in presence of 1 M methanol
[6] = Cleavage of thiol-mediated supercoiled pGL2 basic DNA assessed as nicked open circular form DNA level at 150 uM in presence 100 ug/ml superoxide dismutase
[7] = Cleavage of supercoiled pGL2 basic DNA assessed as number of strand breaks per plasmid at 150 uM
[8] = Cleavage of thiol-mediated supercoiled pGL2 basic DNA assessed as nicked open circular form DNA level at 150 uM in presence 1 M ethanol
[9] = Cleavage of thiol-mediated supercoiled pGL2 basic DNA assessed as nicked open circular form DNA level at 150 uM in presence 10 mM desferal
[10] = Cleavage of thiol-mediated supercoiled pGL2 basic DNA assessed as nicked open circular form DNA level at 150 uM in presence […]
[11] = Cleavage of thiol-mediated supercoiled pGL2 basic DNA assessed as number of strand breaks per plasmid at 150 uM in presence of 1 M ethanol
[12] = Cleavage of thiol-mediated supercoiled pGL2 basic DNA assessed as number of strand breaks per plasmid at 150 uM in presence of 10 mM diethylenetriaminepentaacetic acid
[13] = Cleavage of thiol-mediated supercoiled pGL2 basic DNA assessed as nicked open circular form DNA level at 150 uM in presence 1 M methanol
[14] = Cleavage of thiol-mediated supercoiled pGL2 basic DNA assessed as number of strand breaks per plasmid at 150 uM in presence of 10 mM desferal
[15] = Cleavage of thiol-mediated supercoiled pGL2 basic DNA assessed as nicked open circular form DNA level at 150 uM in presence 100 ug/ml catalase
[16] = Cleavage of thiol-mediated supercoiled pGL2 basic DNA assessed as number of strand breaks per plasmid at 150 uM in presence of 100 ug/ml catalase
[17] = Cleavage of supercoiled pGL2 basic DNA assessed as nicked open circular form DNA level at 150 uM
[18] = Cleavage of thiol-mediated supercoiled pGL2 basic DNA assessed as number of strand breaks per plasmid at 150 uM in presence of 1 M DMSO
[19] = Cleavage of thiol-mediated supercoiled pGL2 basic DNA assessed as nicked open circular form DNA level at 150 uM in presence 50 ug/ml superoxide dismutase
[20] = Cleavage of thiol-mediated supercoiled pGL2 basic DNA assessed as nicked open circular form DNA level at 150 uM in presence 10 mM diethylenetriaminepentaacetic acid

Q: Which Activity [1] does the source give for CC1(O)C(=O)S[S+]([O-])C1(C)C (stereo unspecified) here?
A: The Activity was 92.5%.

Q: What about the Activity [2] of the same compound?
A: Its Activity is 2.58.

Q: Which Activity [1] does the source give for O=c1ssc2ccccc12 here?
A: The Activity was 33.1%.

Q: And the Activity [2]?
A: Its Activity is 0.4.

Q: For C/C1=C\[C@@H](O)C(=O)/C=C/C=C\c2csc(n2)[C@@H](C)NC(=O)C[C@@]2(CC1)SSC(=O)[C@]2(C)O, which IC50 [3] is on record?
A: Its IC50 is 4000 nM.

Q: Which GI50 [4] does the source give for BLEOMYCIN here?
A: The GI50 was 1000 nM.

Q: For N[C@@H](Cc1ccc(N(CCCl)CCCl)cc1)C(=O)O [MELPHALAN], which GI50 [4] is on record?
A: The GI50 was 17000 nM.

Q: What does the source list for CC1(C)SSC(=O)C1(C)O (stereo unspecified)?
A: Activity [5]: 0.32; Activity [6]: 100%; Activity [7]: 0.2; Activity [8]: 19%; Activity [9]: 25.9%; Activity [10]: 15.5%; Activity [11]: 0.21; Activity [12]: 0.21; Activity [13]: 27.5%; Activity [14]: 0.3; Activity [15]: 19.3%; Activity [16]: 0.21; Activity [17]: 18.2%; Activity [1]: 73.1%; Activity [18]: 0.17; Activity [19]: 100%; Activity [20]: 19%; Activity [2]: 1.32

Q: Which IC50 [3] does the source give for C/C1=C\[C@@H](O)C(=O)/C=C/C=C\c2csc(n2)[C@@H](C)NC(=O)C[C@@]2(CC1)[S+]([O-])SC(=O)[C@]2(C)O (stereo partly specified) [LEINAMYCIN] here?
A: Its IC50 is 27 nM.
